# Measurements published in patent publication US20210251228A1, “METHODS FOR REPELLING DROSOPHILA SPECIES USING 2-PENTYLFURAN” (The United States of America, as represented by the …, priority 2020, published 2021).
# Columns and labels:
# Format in all cases: in vivo
# Drosophila suzukii [1] = assay: Multiple-choice bioassay: EAD-active compound added to 4-component SWD lure in gated cup traps
# Experimental: Multiple-Choice Bioassay: The multiple choice assay (N=8) was conducted with an arena design using a dome cage (60 cm W×60 cm L×60 cm H; BugDorm-2120 Insect tent; shop.bugdorm.com) as described in Cha et al. 2018b (Cha, D. H., et al., Environ. Entomol., 47: 946-950 (2018b)) to evaluate the effect of the individual EAD-active compounds (FIG. 1) on SWD attraction to previously identified 4-component SWD lure (Cha et al. 2012; Cha, D. H., et al., Pest Manag. Sci., 70: 324-331 (2014); Cha, D. H., et al., Environ. Entomol., 46: 907-915 (2017)). Among 18 EAD-active compounds in FIG. 1, acetoin, 1-hexanol, isoamyl acetate, 2-methylbutyl acetate, and 2-phenylethanol were previously tested for their behavioral effects (Cha et al. 2012, 2014) and not considered in this study. Therefore, we compared 13 EAD-active compounds in this study. Within each arena, 14 traps were positioned in a circle (40 cm diameter) at equal distance with each trap 9 cm apart along the circumference. We used an aluminum foil-covered 100-ml glass beaker with a cut centrifuge vial (0.7 cm diameter) inserted in the foil for SWD entry, as a trap (Cha et al. 2012). All 14 traps had the SWD lure comprised of acetic acid, ethanol, acetoin, and methionol. Acetic acid and ethanol were released from a 20 ml solution of 4% acetic acid+8% ethanol with soap, presented as a drowning solution in each trap. Acetoin (1 ml of 50% acetoin in water) and methionol (0.5 ml neat methionol) were individually released from two 1.5-ml vials with 3-mm hole on the lid with a piece of cotton as described in Cha et al. 2014. One of these 14 traps served as a control (with the 4-component SWD lure only) and the remaining 13 traps had one of the 13 EAD-active compounds added to the SWD-lure, loaded as described in Cha et al. 2012 and released from a 1.5-ml vial with 3-mm hole with a piece of cotton. […] The number of flies inside treatment and control traps was counted after 20 h.
# (§1) Statistical Analyses: Trap catch data from multiple-choice assay and two-choice assay were analyzed in a randomized block design with block as a random factor and different EAD-active compounds as a fixed factor using Poisson distribution with log link function and maximum likelihood estimation (Proc Glimmix, SAS Institute, SAS/STAT 9.2 User's Guide, Second Edition, 2009, SAS Institute Inc., Cary, N.C.). Oviposition data from (1) laboratory dose-response test, (2) semi-field cage choice test, and (3) first and second field experiments were also analyzed in a randomized block design with block as a random factor and different 2-pentylfuran treatments as a fixed factor using Poisson distribution with log link function and maximum likelihood estimation. […]
# Drosophila suzukii [2] = assay: Field test 1: unknown release rate of 2-pentylfuran, SWD oviposition on field raspberries; settings: 0.5 ml 50% 2-pentylfuran in mineral oil in vial, 3 days, N=16
# Experimental: Field Test 1: Effect of Unknown Release Rate of 2-Pentylfuran on SWD Oviposition. The objective of this field test was to confirm the repellent activity of 2-pentylfuran under field conditions. This experiment was conducted using a mixed variety planting of fall-bearing raspberries (primocane raspberries) at Cornell AgriTech in Geneva, N.Y. where we randomly assigned 32 fruiting clusters to one of two treatments: 1.5 ml centrifuge vial with 3 mm hole in lid and containing 0.5 ml 50% 2-pentylfuran in 1:1 ratio with mineral oil or vial with mineral oil only (similar to Wallingford et al. 2016a). After three days we collected ripe raspberries from each cluster and monitored SWD emergence over the 2 weeks in the laboratory (25 C, 55% RH, 16:8 L:D).
# Statistical Analyses: Trap catch data from multiple-choice assay and two-choice assay were analyzed in a randomized block design with block as a random factor and different EAD-active compounds as a fixed factor using Poisson distribution with log link function and maximum likelihood estimation (Proc Glimmix, SAS Institute, SAS/STAT 9.2 User's Guide, Second Edition, 2009, SAS Institute Inc., Cary, N.C.). […]
# Drosophila suzukii [3] = assay: Field cage choice test: SWD oviposition on raspberries in deli cups; settings: two-choice field cage, 10 mg/h sachet, 24 h, N=4
# Experimental: Field cage choice test: We evaluated the effect of 2-pentylfuran released at 10 mg/h on SWD oviposition in choice oviposition experiment under semi-field condition using flies from SWD lab colony in Hawaii. For this experiment, we used a different, more user-friendly dispenser (polyethylene sachet: see Cha et al. 2017). The 10 mg/h release rate of 2-pentylfuran, inferred from calculating weight loss of loaded dispensers over time as described by Cha et al. 2017 (linear regression between weight of sachet containing 2-pentylfuran (mg) and time (h) during 30 h period: sachet weight=669.1[…]*time, R2=0.99, P<0.0001) was achieved using equilateral triangle shaped sachets made with two layers of polyethylene film (0.0508 mm thickness, Thermwell Products Co., Inc, Mahwah, N.J.) with 5 cm on each side. One 2 cm by 1 cm diameter piece of cotton dental wick was placed into the sachet and 1 ml of neat 2-pentylfuran was loaded onto the dental wick with a syringe. Loaded sachets were sealed using an Impulse heat-sealer (Model MP-12C, Midwest Pacific Inc., St. Louis). […]
# as §1
smiles,measurement,setting,value
CCCCCc1ccco1 [2-pentylfuran],reduction of trap catches of SWD,Drosophila suzukii [1]; SWD lure + 2-pentylfuran vs SWD lure only (62 SWD/trap),98%
same,negative effect on SWD attraction to the SWD lure compared with 1-octen-3-ol,"Drosophila suzukii [1]; multiple-choice, 20 h, N=8",significantly stronger than 1-octen-3-ol
same,effect on SWD attraction to (catch in traps baited with) the 4-component SWD lure,"Drosophila suzukii [1]; one compound added to SWD lure, 14 traps per arena, flies counted after 20 h, N=8",greatest reduction
same,trap catch of SWD,"Drosophila suzukii [1]; trap with SWD lure + 2-pentylfuran, 20 h",1 SWD/trap
same,reduction of number of eggs per raspberry fruit,Drosophila suzukii [2],30%
same,reduction of SWD oviposition on raspberries,Drosophila suzukii [3]; deli cups with 25% opening,85%
same,reduction of SWD oviposition on raspberries,Drosophila suzukii [3]; deli cups with 50% opening,62%
same,reduction of SWD oviposition on raspberries,Drosophila suzukii [3]; deli cups with 75% opening,75%
